Data as given in patent publication US20240300932A1, “N-PHENYLIMINE DERIVATIVE AND PREPARATION METHOD AND USE THEREOF” (Guizhou University, priority 2023, published 2024).

Tests used:
Abutilon theophrasti = assay: Post-emergence herbicidal activity test (stem and leaf spray, pot culture); format: in vivo; details: 3 weeks after spraying
In short: (§1)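 Pot-grown weeds in loam (pH 7, 1.63% organic matter) were spray-treated on stems and leaves at the 2- to 3-leaf stage with compound in acetone/Tween 80 plus 1.5 liters/ha methyl oleate at 10, 5 or 2.5 g/mu. Fresh-weight growth control was scored 3 weeks later as grades 0–5.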

Amaranthus retroflexus = assay: as above; format: in vivo; details: 3 weeks after spraying
In short: as §1

Echinochloa crusgalli = assay: as above; format: in vivo; details: 3 weeks after spraying
In short: as §1

Portulaca oleracea = assay: as above; format: in vivo; details: 3 weeks after spraying
In short: as §1

Setaria viridis = assay: as above; format: in vivo; details: 3 weeks after spraying
In short: as §1

Trifoliumre pensL. = assay: Post-emergence herbicidal activity test (stem and leaf spray, pot culture); format: in vivo; details: 3 weeks after spraying
In short: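 Rates of 10, 5 and 2.5 g/mu were applied in a single spray-tower treatment to 2–3-leaf plants, thinned to 10 per pot. Formulation: acetone solution, Tween 80, 1.5 L/ha methyl oleate synergist. Weed response assessed after 3 further greenhouse weeks; mean of three experiments.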

Compound | Post-emergence herbicidal activity, A. theophrasti (grade) (Abutilon theophrasti; dosage 2.5 g/mu) | Post-emergence herbicidal activity, A. theophrasti (grade) (Abutilon theophrasti; dosage 5 g/mu) | Post-emergence herbicidal activity, A. theophrasti (grade) (Abutilon theophrasti; dosage 10 g/mu) | Post-emergence herbicidal activity, A. retroflexus (grade) (Amaranthus retroflexus; dosage 2.5 g/mu) | Post-emergence herbicidal activity, A. retroflexus (grade) (Amaranthus retroflexus; dosage 5 g/mu) | Post-emergence herbicidal activity, A. retroflexus (grade) (Amaranthus retroflexus; dosage 10 g/mu) | Post-emergence herbicidal activity, E. crusgalli (grade) (Echinochloa crusgalli; dosage 2.5 g/mu) | Post-emergence herbicidal activity, E. crusgalli (grade) (Echinochloa crusgalli; dosage 5 g/mu) | Post-emergence herbicidal activity, E. crusgalli (grade) (Echinochloa crusgalli; dosage 10 g/mu) | Post-emergence herbicidal activity, P. oleracea (grade) (Portulaca oleracea; dosage 2.5 g/mu) | Post-emergence herbicidal activity, P. oleracea (grade) (Portulaca oleracea; dosage 5 g/mu) | Post-emergence herbicidal activity, P. oleracea (grade) (Portulaca oleracea; dosage 10 g/mu) | Post-emergence herbicidal activity, S. viridis (grade) (Setaria viridis; dosage 2.5 g/mu) | Post-emergence herbicidal activity, S. viridis (grade) (Setaria viridis; dosage 5 g/mu) | Post-emergence herbicidal activity, S. viridis (grade) (Setaria viridis; dosage 10 g/mu) | melting point | Post-emergence herbicidal activity, Trifoliumre pensL. (grade) (Trifoliumre pensL.; dosage 2.5 g/mu) | Post-emergence herbicidal activity, Trifoliumre pensL. (grade) (Trifoliumre pensL.; dosage 5 g/mu) | Post-emergence herbicidal activity, Trifoliumre pensL. (grade) (Trifoliumre pensL.; dosage 10 g/mu)
O=C1C2=C(CCCC2)C(=O)N1c1cc(OCc2ccc(F)cc2)c(Cl)cc1F [Compound C10, 2-(4-chloro-2-fluoro-5-((4-fluorobenzyl)oxy)phenyl)-4,5,6,7-tetrahydro-1H-isoindole-1,3(2H)-dione] | 5 (Grade 5: the growth control rate is greater than or equal to 85%) | 5 (Grade 5: the growth control rate is greater than or equal to 85%) | 5 (Grade 5: the growth control rate is greater than or equal to 85%) | 5 (Grade 5: the growth control rate is greater than or equal to 85%) | 5 (Grade 5: the growth control rate is greater than or equal to 85%) | 5 (Grade 5: the growth control rate is greater than or equal to 85%) | 1 (Grade 1: the growth control rate is greater than or equal to 5% and less than 20%) | 2 (Grade 2: the growth control rate is greater than or equal to 20% and less than 40%) | 3 (Grade 3: the growth control rate is greater than or equal to 40% and less than 60%) | 5 (Grade 5: the growth control rate is greater than or equal to 85%) | 5 (Grade 5: the growth control rate is greater than or equal to 85%) | 5 (Grade 5: the growth control rate is greater than or equal to 85%) | 2 (Grade 2: the growth control rate is greater than or equal to 20% and less than 40%) | 3 (Grade 3: the growth control rate is greater than or equal to 40% and less than 60%) | 4 (Grade 4: the growth control rate is greater than or equal to 60% and less than 85%) | 119 to 121 °C | 5 (Grade 5: the growth control rate is greater than or equal to 85%) | 5 (Grade 5: the growth control rate is greater than or equal to 85%) | 5 (Grade 5: the growth control rate is greater than or equal to 85%)
O=C(COc1cc(N2C(=O)C3=C(CCCC3)C2=O)c(F)cc1Cl)c1ccc(Cl)cc1 [Compound C11, 2-(4-chloro-2-fluoro-5-(2-oxo-2-(4-chlorophenyl)ethoxy)phenyl)-4,5,6,7-tetrahydro-1H-isoindole-1,3(2H)-dione] | 5 (Grade 5: the growth control rate is greater than or equal to 85%) | 5 (Grade 5: the growth control rate is greater than or equal to 85%) | 5 (Grade 5: the growth control rate is greater than or equal to 85%) | 5 (Grade 5: the growth control rate is greater than or equal to 85%) | 5 (Grade 5: the growth control rate is greater than or equal to 85%) | 5 (Grade 5: the growth control rate is greater than or equal to 85%) | 1 (Grade 1: the growth control rate is greater than or equal to 5% and less than 20%) | 2 (Grade 2: the growth control rate is greater than or equal to 20% and less than 40%) | 3 (Grade 3: the growth control rate is greater than or equal to 40% and less than 60%) | 5 (Grade 5: the growth control rate is greater than or equal to 85%) | 5 (Grade 5: the growth control rate is greater than or equal to 85%) | 5 (Grade 5: the growth control rate is greater than or equal to 85%) | 2 (Grade 2: the growth control rate is greater than or equal to 20% and less than 40%) | 3 (Grade 3: the growth control rate is greater than or equal to 40% and less than 60%) | 4 (Grade 4: the growth control rate is greater than or equal to 60% and less than 85%) | 148 to 150 °C | 5 (Grade 5: the growth control rate is greater than or equal to 85%) | 5 (Grade 5: the growth control rate is greater than or equal to 85%) | 5 (Grade 5: the growth control rate is greater than or equal to 85%)
O=C(COc1cc(N2C(=O)C3=C(CCCC3)C2=O)c(F)cc1Cl)c1ccc(F)cc1F [Compound C12, 2-(4-chloro-2-fluoro-5-(2-oxo-2-(2,4-difluorophenyl)ethoxy)phenyl)-4,5,6,7-tetrahydro-1H-isoindole-1,3(2H)-dione] | 5 (Grade 5: the growth control rate is greater than or equal to 85%) | 5 (Grade 5: the growth control rate is greater than or equal to 85%) | 5 (Grade 5: the growth control rate is greater than or equal to 85%) | 5 (Grade 5: the growth control rate is greater than or equal to 85%) | 5 (Grade 5: the growth control rate is greater than or equal to 85%) | 5 (Grade 5: the growth control rate is greater than or equal to 85%) | 1 (Grade 1: the growth control rate is greater than or equal to 5% and less than 20%) | 2 (Grade 2: the growth control rate is greater than or equal to 20% and less than 40%) | 3 (Grade 3: the growth control rate is greater than or equal to 40% and less than 60%) | 5 (Grade 5: the growth control rate is greater than or equal to 85%) | 5 (Grade 5: the growth control rate is greater than or equal to 85%) | 5 (Grade 5: the growth control rate is greater than or equal to 85%) | 2 (Grade 2: the growth control rate is greater than or equal to 20% and less than 40%) | 3 (Grade 3: the growth control rate is greater than or equal to 40% and less than 60%) | 4 (Grade 4: the growth control rate is greater than or equal to 60% and less than 85%) | 158 to 160 °C | 5 (Grade 5: the growth control rate is greater than or equal to 85%) | 5 (Grade 5: the growth control rate is greater than or equal to 85%) | 5 (Grade 5: the growth control rate is greater than or equal to 85%)
